In ChEMBL document CHEMBL5375952, “Discovery of Novel 8-Hydroxyquinoline Derivatives with Potent In Vitro and In Vivo Antifungal Activity” (J Med Chem, 2023):
Converted amounts (≈) assume the structure as drawn. The source made the active and inactive calls. The calls are words filed in the database; no cut-off is given here.

Legend:
Candida albicans [1] = experiment: Antifungal activity against FLC-resistant Candida albicans 819 assessed as fungal growth inhibition incubated for 48 hrs by broth microdilution method; format: functional
Candida albicans [2] = experiment: Antifungal activity against FLC-resistant Candida albicans 710554 assessed as fungal growth inhibition incubated for 48 hrs by broth microdilution method; format: functional
Candida albicans [3] = experiment: Synergistic antifungal activity against FLC-resistant Candida albicans 12 assessed as fungal growth inhibition incubated for 48 hrs in presence of FLC by broth microdilution method; format: functional
Candida albicans [4] = experiment: Antifungal activity against FLC-resistant Candida albicans 512681 assessed as fungal growth inhibition incubated for 48 hrs by broth microdilution method; format: functional
Candida albicans [5] = experiment: Antifungal activity against FLC-resistant Candida albicans 538 assessed as fungal growth inhibition incubated for 48 hrs by broth microdilution method; format: functional
Candida albicans [6] = experiment: Antifungal activity against FLC-resistant Candida albicans 710513 assessed as fungal growth inhibition incubated for 48 hrs by broth microdilution method; format: functional
Candida albicans [7] = experiment: Antifungal activity against FLC-resistant Candida albicans 100 assessed as fungal growth inhibition incubated for 48 hrs by broth microdilution method; format: functional
Candida albicans [8] = experiment: Antifungal activity against FLC-resistant Candida albicans 305 assessed as fungal growth inhibition incubated for 48 hrs by broth microdilution method; format: functional
Candida albicans [9] = experiment: Synergistic antifungal activity against FLC-resistant Candida albicans 304103 assessed as MIC of FLC incubated for 48 hrs by broth microdilution method; format: functional
Candida albicans [10] = experiment: Antifungal activity against Candida albicans SC5314 assessed as fungal growth inhibition incubated for 48 hrs in presence of K+ by broth microdilution method; format: functional, organism-based
Candida albicans [11] = experiment: Antifungal activity against Candida albicans SC5314 assessed as fungal growth inhibition incubated for 48 hrs in presence of Ca2+ by broth microdilution method; format: functional, organism-based
Candida albicans [12] = experiment: Antifungal activity against FLC-resistant Candida albicans 304103 assessed as fungal growth inhibition incubated for 48 hrs by broth microdilution method; format: functional
Candida albicans [13] = experiment: Antifungal activity against FLC-resistant Candida albicans 710506 assessed as fungal growth inhibition incubated for 48 hrs by broth microdilution method; format: functional
Candida albicans [14] = experiment: Antifungal activity against FLC-resistant Candida albicans 249 assessed as fungal growth inhibition incubated for 48 hrs by broth microdilution method; format: functional
Candida albicans [15] = experiment: Antifungal activity against FLC-resistant Candida albicans 5740 assessed as fungal growth inhibition incubated for 48 hrs by broth microdilution method; format: functional
[Candida] auris = Antifungal activity against Candida auris 888 assessed as fungal growth inhibition incubated for 48 hrs by broth microdilution method; format: functional; conditions: Candidozyma auris
Candida albicans [16] = experiment: Antifungal activity against FLC-resistant Candida albicans 14 assessed as fungal growth inhibition incubated for 48 hrs by broth microdilution method; format: functional
Candida albicans [17] = experiment: Inhibition of mature biofilm formation of Candida albicans SC5314 upto 16 ug/ml incubated for 24 hrs by XTT assay; format: functional, organism-based; conditions: dose <= 16.0 µg/ml
Candida albicans [18] = experiment: Antifungal activity against FLC-resistant Candida albicans 10 assessed as fungal growth inhibition incubated for 48 hrs by broth microdilution method; format: functional
Candida albicans [19] = experiment: Antifungal activity against FLC-resistant Candida albicans 512644 assessed as fungal growth inhibition incubated for 48 hrs by broth microdilution method; format: functional
Candida albicans [20] = experiment: Antifungal activity against FLC-resistant Candida albicans 11 assessed as fungal growth inhibition incubated for 48 hrs by broth microdilution method; format: functional
Candida albicans [21] = experiment: Antifungal activity against Candida albicans SC5314 assessed as fungal growth inhibition incubated for 48 hrs in presence of Mg2+ by broth microdilution method; format: functional, organism-based
Pichia kudriavzevii = experiment: Antifungal activity against Candida krusei 69 assessed as fungal growth inhibition incubated for 48 hrs by broth microdilution method; format: functional
Candida albicans [22] = experiment: Antifungal activity against Candida albicans SC5314 infected in C57BL/6 mouse assessed as mean fungal burden at 2 mg/kg, ip measured after 46 hrs by plate count method (reference value: 6.890 log10CFU/ml); format: functional
Candida albicans [23] = experiment: Antifungal activity against FLC-resistant Candida albicans 17 assessed as fungal growth inhibition incubated for 48 hrs by broth microdilution method; format: functional
Candida albicans [24] = experiment: Synergistic antifungal activity against FLC-resistant Candida albicans 8 assessed as fungal growth inhibition incubated for 48 hrs in presence of FLC by broth microdilution method; format: functional
Candida albicans [25] = experiment: Antifungal activity against FLC-resistant Candida albicans 540 assessed as fungal growth inhibition incubated for 48 hrs by broth microdilution method; format: functional
Candida albicans [26] = experiment: Antifungal activity against FLC-resistant Candida albicans 64548 assessed as fungal growth inhibition incubated for 48 hrs by broth microdilution method; format: functional
Candida albicans [27] = experiment: Antifungal activity against FLC-resistant Candida albicans 710452 assessed as fungal growth inhibition incubated for 48 hrs by broth microdilution method; format: functional
[28] = Cytotoxicity against HUVEC cells assessed as cell growth inhibition incubated for 24 hrs by CCK8 assay; format: toxicity, cell-based; conditions: human
Candida albicans [29] = experiment: Antifungal activity against FLC-resistant Candida albicans 8 assessed as fungal growth inhibition incubated for 48 hrs by broth microdilution method; format: functional
Candida albicans [30] = experiment: Antifungal activity against FLC-resistant Candida albicans 710419 assessed as fungal growth inhibition incubated for 48 hrs by broth microdilution method; format: functional
[31] = Toxicity in C57BL/6 mouse infected with Candida albicans SC5314 assessed as mean survival time at 2 mg/kg, ip (reference value: 5 day); format: organism-based; conditions: in vivo, 120 h
Candida albicans [32] = experiment: Antifungal activity against FLC-resistant Candida albicans 379 assessed as fungal growth inhibition incubated for 48 hrs by broth microdilution method; format: functional
Candida tropicalis = experiment: Antifungal activity against Candida tropicalis 177 assessed as fungal growth inhibition incubated for 48 hrs by broth microdilution method; format: functional
Candida albicans [33] = experiment: Antifungal activity against FLC-resistant Candida albicans 385 assessed as fungal growth inhibition incubated for 48 hrs by broth microdilution method; format: functional
Candida albicans [34] = experiment: Antifungal activity against FLC-resistant Candida albicans 12 assessed as fungal growth inhibition incubated for 48 hrs by broth microdilution method; format: functional
Candida albicans [35] = experiment: Antifungal activity against FLC-resistant Candida albicans 395 assessed as fungal growth inhibition incubated for 48 hrs by broth microdilution method; format: functional
Nakaseomyces glabratus = experiment: Antifungal activity against Candida glabrata 203 assessed as fungal growth inhibition incubated for 48 hrs by broth microdilution method; format: functional
Candida albicans [36] = experiment: Antifungal activity against FLC-resistant Candida albicans 605141 assessed as fungal growth inhibition incubated for 48 hrs by broth microdilution method; format: functional
Candida albicans [37] = experiment: Antifungal activity against Candida albicans SC5314 assessed as fungal growth inhibition incubated for 48 hrs in presence of Zn2+ by broth microdilution method; format: functional, organism-based
Candida albicans [38] = experiment: Antifungal activity against FLC-resistant Candida albicans 1221 assessed as fungal growth inhibition incubated for 48 hrs by broth microdilution method; format: functional
Candida albicans [39] = experiment: Antifungal activity against FLC-resistant Candida albicans 953 assessed as fungal growth inhibition incubated for 48 hrs by broth microdilution method; format: functional
[40] = Cytotoxicity against human Caco-2 cells assessed as cell growth inhibition incubated for 24 hrs by CCK8 assay; format: toxicity, cell-based
Candida parapsilosis = experiment: Antifungal activity against Candida parapsilosis 107 assessed as fungal growth inhibition incubated for 48 hrs by broth microdilution method; format: functional; conditions: Lodderomyces parapsilosis
Candida albicans [41] = experiment: Antifungal activity against FLC-resistant Candida albicans 241 assessed as fungal growth inhibition incubated for 48 hrs by broth microdilution method; format: functional
Candida albicans [42] = experiment: Antifungal activity against FLC-resistant Candida albicans 646 assessed as fungal growth inhibition incubated for 48 hrs by broth microdilution method; format: functional

CCN(CC)c1ccc(C(NC(=O)C(C)C)c2ccc3cccnc3c2O)cc1 (configuration not stated)
MIC (Candida albicans [1]): 0.125 µg/mL (≈ 0.319 µM)
MIC (Candida albicans [2]): 0.5 µg/mL (≈ 1.28 µM)
MIC (Candida albicans [3]): 0.008 µg/mL
MIC (Candida albicans [4]): 0.25 µg/mL (≈ 0.639 µM)
MIC (Candida albicans [5]): 0.25 µg/mL (≈ 0.639 µM)
MIC (Candida albicans [6]): 0.5 µg/mL (≈ 1.28 µM)
MIC (Candida albicans [7]): 0.125 µg/mL (≈ 0.319 µM)
MIC (Candida albicans [8]): 0.5 µg/mL (≈ 1.28 µM)
MIC (Candida albicans [9]): 0.5 µg/mL
growth inhibition (GI) (Candida albicans [10]): Active
growth inhibition (GI) (Candida albicans [11]): Active
MIC (Candida albicans [12]): 0.25 µg/mL (≈ 0.639 µM)
MIC (Candida albicans [13]): 1 µg/mL (≈ 2.55 µM)
MIC (Candida albicans [14]): 0.25 µg/mL (≈ 0.639 µM)
MIC (Candida albicans [15]): 0.063 µg/mL (≈ 0.161 µM)
MIC ([Candida] auris): 0.25 µg/mL (≈ 0.639 µM)
MIC (Candida albicans [16]): 0.125 µg/mL (≈ 0.319 µM)
inhibition (Candida albicans [17]): inactive
MIC (Candida albicans [18]): 0.125 µg/mL (≈ 0.319 µM)
MIC (Candida albicans [19]): 0.25 µg/mL (≈ 0.639 µM)
MIC (Candida albicans [20]): 0.25 µg/mL (≈ 0.639 µM)
growth inhibition (GI) (Candida albicans [21]): Active
MIC (Pichia kudriavzevii): 0.125 µg/mL (≈ 0.319 µM)
Activity (Candida albicans [22]): 6.283 log10CFU/g
MIC (Candida albicans [23]): 0.5 µg/mL (≈ 1.28 µM)
MIC (Candida albicans [24]): 0.031 µg/mL
MIC (Candida albicans [25]): 0.25 µg/mL (≈ 0.639 µM)
MIC (Candida albicans [26]): 0.5 µg/mL (≈ 1.28 µM)
MIC (Candida albicans [27]): 0.125 µg/mL (≈ 0.319 µM)
IC50 at 24 h [28]: 67.8 µg/mL (≈ 173 µM)
MIC (Candida albicans [29]): 0.125 µg/mL (≈ 0.319 µM)
MIC (Candida albicans [30]): 0.5 µg/mL (≈ 1.28 µM)
Survival [31]: 6.5 days
MIC (Candida albicans [32]): 0.25 µg/mL (≈ 0.639 µM)
MIC (Candida tropicalis): 0.125 µg/mL (≈ 0.319 µM)
MIC (Candida albicans [33]): 0.125 µg/mL (≈ 0.319 µM)
MIC (Candida albicans [34]): 0.25 µg/mL (≈ 0.639 µM)
MIC (Candida albicans [35]): 0.125 µg/mL (≈ 0.319 µM)
MIC (Nakaseomyces glabratus): 0.016 µg/mL (≈ 0.0409 µM)
MIC (Candida albicans [36]): 0.5 µg/mL (≈ 1.28 µM)
growth inhibition (GI) (Candida albicans [37]): Active
MIC (Candida albicans [38]): 0.25 µg/mL (≈ 0.639 µM)
MIC (Candida albicans [39]): 0.5 µg/mL (≈ 1.28 µM)
IC50 at 24 h [40]: 72.6 µg/mL (≈ 185 µM)
MIC (Candida parapsilosis): 0.125 µg/mL (≈ 0.319 µM)
MIC (Candida albicans [41]): 0.5 µg/mL (≈ 1.28 µM)
MIC (Candida albicans [42]): 0.125 µg/mL (≈ 0.319 µM)

Oc1c(I)cc(Cl)c2cccnc12 [CLIOQUINOL]
growth inhibition (GI) (Candida albicans [10]): Active
growth inhibition (GI) (Candida albicans [11]): Active
MIC ([Candida] auris): 0.25 µg/mL (≈ 0.818 µM)
growth inhibition (GI) (Candida albicans [21]): Active
MIC (Pichia kudriavzevii): 0.125 µg/mL (≈ 0.409 µM)
Activity (Candida albicans [22]): 6.683 log10CFU/g
Survival [31]: 5 days
MIC (Candida tropicalis): 0.125 µg/mL (≈ 0.409 µM)
MIC (Nakaseomyces glabratus): 0.125 µg/mL (≈ 0.409 µM)
growth inhibition (GI) (Candida albicans [37]): Active
IC50 at 24 h [40]: 19.3 µg/mL (≈ 63.1 µM)
MIC (Candida parapsilosis): 0.5 µg/mL (≈ 1.64 µM)

OC(Cn1cncn1)(Cn1cncn1)c1ccc(F)cc1F [FLUCONAZOLE]
MIC (Candida albicans [1]): 32 µg/mL (≈ 104 µM)
MIC (Candida albicans [2]): > 64 µg/mL
MIC (Candida albicans [4]): > 64 µg/mL
MIC (Candida albicans [5]): > 64 µg/mL
MIC (Candida albicans [6]): > 64 µg/mL
MIC (Candida albicans [7]): 16 µg/mL (≈ 52.2 µM)
MIC (Candida albicans [8]): > 64 µg/mL
MIC (Candida albicans [12]): 32 µg/mL (≈ 104 µM)
MIC (Candida albicans [13]): > 64 µg/mL
MIC (Candida albicans [14]): 32 µg/mL (≈ 104 µM)
MIC (Candida albicans [15]): 32 µg/mL (≈ 104 µM)
MIC ([Candida] auris): > 64 µg/mL
MIC (Candida albicans [16]): 32 µg/mL (≈ 104 µM)
inhibition (Candida albicans [17]): inactive
MIC (Candida albicans [18]): 32 µg/mL (≈ 104 µM)
MIC (Candida albicans [19]): > 64 µg/mL
MIC (Candida albicans [20]): 32 µg/mL (≈ 104 µM)
MIC (Pichia kudriavzevii): 0.25 µg/mL (≈ 0.816 µM)
MIC (Candida albicans [23]): 32 µg/mL (≈ 104 µM)
MIC (Candida albicans [25]): > 64 µg/mL
MIC (Candida albicans [26]): > 64 µg/mL
MIC (Candida albicans [27]): > 64 µg/mL
IC50 at 24 h [28]: 9.18 µg/mL (≈ 30 µM)
MIC (Candida albicans [29]): 16 µg/mL (≈ 52.2 µM)
MIC (Candida albicans [30]): > 64 µg/mL
MIC (Candida albicans [32]): > 64 µg/mL
MIC (Candida tropicalis): 2 µg/mL (≈ 6.53 µM)
MIC (Candida albicans [33]): > 64 µg/mL
MIC (Candida albicans [34]): 32 µg/mL (≈ 104 µM)
MIC (Candida albicans [35]): 32 µg/mL (≈ 104 µM)
MIC (Nakaseomyces glabratus): 0.125 µg/mL (≈ 0.408 µM)
MIC (Candida albicans [36]): > 64 µg/mL
MIC (Candida albicans [38]): > 64 µg/mL
MIC (Candida albicans [39]): > 64 µg/mL
IC50 at 24 h [40]: > 64 µg/mL
MIC (Candida parapsilosis): > 64 µg/mL
MIC (Candida albicans [41]): > 64 µg/mL
MIC (Candida albicans [42]): > 64 µg/mL
